Measurements published in ChEMBL document CHEMBL2163289, “The discovery of N-[5-(4-bromophenyl)-6-[2-[(5-bromo-2-pyrimidinyl)oxy]ethoxy]-4-pyrimidinyl]-N'-propylsulfamide (Macitentan), an orally active, potent dual endothelin receptor antagonist” (J Med Chem, 2012).
Active and inactive are the calls of the source. The calls are words filed in the database; no cut-off is given here. Where a SMILES comes first, the peptide text is derived from it. [ ]: non-standard residue; d: D form.

Key:
Endothelin-1 receptor = molecular target: T1, Endothelin-1 receptor (Homo sapiens, UniProt P25101); assay: Displacement of [I125]ET1 from recombinant ETA receptor expressed in CHO cells after 2 hrs by TopCount analysis; type: cell-based
T1 sequence (P25101 whole entry): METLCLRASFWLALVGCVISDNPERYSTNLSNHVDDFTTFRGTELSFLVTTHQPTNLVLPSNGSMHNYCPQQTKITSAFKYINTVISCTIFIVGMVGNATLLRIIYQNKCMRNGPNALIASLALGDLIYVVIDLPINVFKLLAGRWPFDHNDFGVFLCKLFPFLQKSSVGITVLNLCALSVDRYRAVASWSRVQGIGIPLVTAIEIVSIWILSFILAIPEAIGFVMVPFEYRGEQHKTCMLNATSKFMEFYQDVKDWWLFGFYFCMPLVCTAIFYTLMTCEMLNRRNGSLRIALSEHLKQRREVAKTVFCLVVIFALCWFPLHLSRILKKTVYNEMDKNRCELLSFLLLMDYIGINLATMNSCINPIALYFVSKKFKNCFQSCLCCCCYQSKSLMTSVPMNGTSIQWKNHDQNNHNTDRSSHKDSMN

Rattus norvegicus [1] = assay: Antihypertensive activity in telemeterized hypertensive Dahl salt-sensitive rat assessed as reduction in mean arterial blood pressure at 3 mg/kg, po measured over 6 hrs; type: functional, Artery
Rattus norvegicus [2] = assay: Effect on heart rate in telemeterized hypertensive Dahl salt-sensitive rat at 3 mg/kg, po
Rattus norvegicus [3] = assay: Cmax in Wistar rat assessed as N-[5-(4-Bromophenyl)-6-[2-[(5-bromo-2-pyrimidinyl)oxy]ethoxy]-4-pyrimidinyl]-sulfamide level at 10 mg/kg, po at 6 hrs; type: ADME, organism-based; parameters: dose 10 mg/kg, route oral; conditions: in vivo

| SMILES | IC50 (Endothelin-1 receptor) [nM] | also measured |
| --- | --- | --- |
| COc1ccccc1Oc1c(NS(=O)(=O)CCc2ccccc2)nc(-c2ncccn2)nc1OCCOc1ncc(C)cn1 | 17.8 | – |
| COc1cc(OC)nc(OCCOc2nc(-c3ncccn3)nc(NS(=O)(=O)CCc3ccccc3)c2Oc2ccccc2OC)n1 | 4780 | – |
| COc1ccccc1Oc1c(NS(=O)(=O)N(C)Cc2ccccc2)nc(-c2ncccn2)nc1OCCOc1ncc(Br)cn1 | 7 | – |
| COc1ccccc1Oc1c(NS(=O)(=O)NCc2ccccc2)ncnc1OCCOc1ncc(Br)cn1 | 6.9 | – |
| COc1ccccc1Oc1c(NS(=O)(=O)CCc2ccccc2)nc(-c2ncccn2)nc1OCCOc1ncc(C2CC2)cn1 | 7.7 | – |
| COc1ccccc1Oc1c(NS(C)(=O)=O)nc(-c2ncccn2)nc1OCCO | 4530 | – |
| CC(C)C[C@@H]1NC(=O)[C@@H](C(C)C)NC(=O)[C@@H]2CCCN2C(=O)[C@@H](CC(=O)O)NC(=O)[C@@H](Cc2c[nH]c3ccccc23)NC1=O [BQ-123] (cyclo(L[dW][dD]P[dV])) | 20.5 | – |
| COc1cnc(OCCOc2nc(-c3ncccn3)nc(NS(=O)(=O)CCc3ccccc3)c2Oc2ccccc2OC)nc1 | 3.2 | – |
| CCCNS(=O)(=O)Nc1nc(-c2ncccn2)nc(OCCOc2ncc(Br)cn2)c1Oc1ccccc1OC | 3.8 | – |
| COc1ccccc1Oc1c(NS(=O)(=O)NCc2ccccc2)nc(C2CC2)nc1OCCOc1ncc(Br)cn1 | 14 | – |
| CCNS(=O)(=O)Nc1nc(-c2ncccn2)nc(OCCOc2ncc(Br)cn2)c1Oc1ccccc1OC | 9.9 | – |
| COCCOc1nc(NS(=O)(=O)NCc2ccccc2)c(Oc2ccccc2OC)c(OCCOc2ncc(Br)cn2)n1 | 6.9 | – |
| COc1ccccc1Oc1c(NS(=O)(=O)CCCc2ccccc2)nc(-c2ncccn2)nc1OCCOc1ncc(Br)cn1 | 6.7 | – |
| COc1nc(NS(=O)(=O)NCc2ccccc2)c(Oc2ccccc2OC)c(OCCOc2ncc(Br)cn2)n1 | 40 | – |
| COc1ccccc1Oc1c(NS(=O)(=O)CCc2ccccc2)nc(-c2ncccn2)nc1OCCOc1ncc(Cl)cn1 | 2.8 | – |
| CC(C)c1ccc(-c2c(NS(=O)(=O)NCc3ccccc3)ncnc2OCCOc2ncc(Br)cn2)cc1 | 3.6 | – |
| COc1ccccc1Oc1c(NS(C)(=O)=O)nc(-c2ncccn2)nc1OCCOc1ncc(Br)cn1 | 113 | – |

| SMILES | IC50 (Endothelin-1 receptor) [nM] | also measured |
| --- | --- | --- |
| NS(=O)(=O)Nc1ncnc(OCCOc2ncc(Br)cn2)c1-c1ccc(Br)cc1 [APROCITENTAN] | 3.4 | – |
| CNS(=O)(=O)Nc1nc(-c2ncccn2)nc(OCCOc2ncc(Br)cn2)c1Oc1ccccc1OC | 7.9 | – |
| CN(Cc1ccccc1)S(=O)(=O)Nc1ncnc(OCCOc2ncc(Br)cn2)c1-c1ccc(Br)cc1 | 4.3 | – |
| COc1ccccc1Oc1c(NS(C)(=O)=O)nc(-c2ncccn2)nc1OCCOc1ncccn1 | 739 | – |
| CCCS(=O)(=O)Nc1nc(-c2ncccn2)nc(OCCOc2ncc(Br)cn2)c1Oc1ccccc1OC | 9.4 | – |
| COc1ccccc1Oc1c(NS(=O)(=O)NCc2ccccc2)nc(-c2ccncc2)nc1OCCOc1ncc(Br)cn1 | 3.4 | – |
| COc1ccccc1Oc1c(NS(=O)(=O)CCc2ccccc2)nc(-c2ncccn2)nc1OCCOc1ncccn1 | 8 | – |
| COc1ccccc1Oc1c(NS(=O)(=O)c2ccccc2)nc(-c2ncccn2)nc1OCCOc1ncc(Br)cn1 | 10.4 | – |
| CC[C@H](C)[C@H](NC(=O)[C@@H](NC(=O)[C@H](CC(=O)O)NC(=O)[C@H](CCC(N)=O)NC(=O)[C@H](Cc1cnc[nH]1)NC(=O)[C@@H]1CSSC[C@H](N)C(=O)N[C@@H]([C@@H](C)O)C(=O)N[C@H]2CSSC[C@H](NC(=O)[C@H](CCC(=O)O)NC(=O)[C@H](CCC(=O)O)NC(=O)[C@H](CC(=O)O)NC(=O)[C@H]([C@@H](C)O)NC(=O)[C@H](CCSC)NC(=O)[C@H](CC(=O)O)NC(=O)[C@H](CC(N)=O)NC2=O)C(=O)N[C@@H](CC(C)C)C(=O)N[C@@H](CC(N)=O)C(=O)N[C@@H](Cc2ccccc2)C(=O)N1)C(C)C)C(=O)N[C@@H](Cc1c[nH]c2ccccc12)C(=O)O [SARAFOTOXIN 6C] | > 100 | – |
| COc1ccccc1Oc1c(NS(=O)(=O)Cc2ccccc2)nc(-c2ncccn2)nc1OCCOc1ncc(Br)cn1 | 73 | – |
| CCS(=O)(=O)Nc1nc(-c2ncccn2)nc(OCCOc2ncc(Br)cn2)c1Oc1ccccc1OC | 14 | – |
| COc1ccccc1Oc1c(NS(=O)(=O)c2ccc(C(C)(C)C)cc2)nc(-c2ncccn2)nc1OCCOc1ncccn1 | 4.3 | – |
| CCCCS(=O)(=O)Nc1nc(-c2ncccn2)nc(OCCOc2ncc(Br)cn2)c1Oc1ccccc1OC | 4.3 | – |
| COc1ccccc1Oc1c(NS(=O)(=O)CCc2ccccc2)nc(-c2ncccn2)nc1OCCO | 25.7 | – |
| COc1ccccc1Oc1c(NS(=O)(=O)N2CCOCC2)nc(-c2ncccn2)nc1OCCOc1ncc(Br)cn1 | 187 | – |
| COc1ccccc1Oc1c(NS(=O)(=O)CCc2ccccc2)nc(-c2ncccn2)nc1OCCOc1ncc(C(F)(F)F)cn1 | 3 | – |
| O=S(=O)(NCc1ccccc1)Nc1ncnc(OCCOc2ncc(Br)cn2)c1-c1ccccc1 | 6.8 | – |

Further molecules by falling IC50 (Endothelin-1 receptor), results first:

| IC50 (Endothelin-1 receptor) [nM] | SMILES | also measured |
| --- | --- | --- |
| 2.8 | O=S(=O)(Nc1ncnc(OCCOc2ncc(Br)cn2)c1-c1ccc(Br)cc1)N1CCOCC1 | – |
| 2.3 | CCc1ccc(-c2c(NS(=O)(=O)NCc3ccccc3)ncnc2OCCOc2ncc(Br)cn2)cc1 | – |
| 2.2 | CCCS(=O)(=O)Nc1ncnc(OCCOc2ncc(Br)cn2)c1-c1ccc(Br)cc1 | Fall in mean arterial blood pressure (Rattus norvegicus [1]): 25 mmHg |
| 2.2 | COc1ccccc1Oc1c(NS(=O)(=O)CCc2ccccc2)nc(-c2ncccn2)nc1OCCOc1ncc(Br)cn1 | – |
| 2.1 | COc1ccccc1Oc1c(NS(=O)(=O)NCc2ccccc2)nc(-c2cnccn2)nc1OCCOc1ncc(Br)cn1 | – |
| 1.9 | COc1ccccc1Oc1c(NS(=O)(=O)NCc2ccccc2)nc(-c2ncccn2)nc1OCCOc1ncc(Br)cn1 | – |
| 1.9 | CCCNS(=O)(=O)Nc1ncnc(OCCOc2ncc(Br)cn2)c1Oc1cccc(OC)c1 | Fall in mean arterial blood pressure (Rattus norvegicus [1]): 15 mmHg |
| 1.7 | CCCCNS(=O)(=O)Nc1nc(-c2ncccn2)nc(OCCOc2ncc(Br)cn2)c1Oc1ccccc1OC | – |
| 1.7 | CNS(=O)(=O)Nc1ncnc(OCCOc2ncc(Br)cn2)c1-c1ccc(Br)cc1 | Fall in mean arterial blood pressure (Rattus norvegicus [1]): 21 mmHg |
| 1.6 | O=S(=O)(NCc1ccccc1)Nc1ncnc(OCCOc2ncc(Br)cn2)c1-c1ccc(Br)cc1 | Activity (Rattus norvegicus [2]): inactive; Fall in mean arterial blood pressure (Rattus norvegicus [1]): 14 mmHg |
| 1.5 | COc1ccccc1Oc1c(NS(=O)(=O)c2ccc(C(C)(C)C)cc2)nc(-c2ncccn2)nc1OCCOc1ncc(Br)cn1 | – |
| 1.4 | COc1ccccc1Oc1c(NS(=O)(=O)NCc2ccccc2)nc(N2CCOCC2)nc1OCCOc1ncc(Br)cn1 | – |
| 1.4 | COc1ccc(Cl)c(Oc2c(NS(=O)(=O)NCc3ccccc3)ncnc2OCCOc2ncc(Br)cn2)c1 | Activity (Rattus norvegicus [2]): inactive; Fall in mean arterial blood pressure (Rattus norvegicus [1]): 24 mmHg |
| 1.4 | O=S(=O)(NCc1ccccc1)Nc1ncnc(OCCOc2ncc(Br)cn2)c1-c1ccc(Cl)cc1 | Activity (Rattus norvegicus [2]): inactive; Fall in mean arterial blood pressure (Rattus norvegicus [1]): 18 mmHg |
| 1.2 | CCCNS(=O)(=O)Nc1ncnc(OCCOc2ncc(Br)cn2)c1-c1ccc(Cl)cc1 | – |
| 1.1 | CCCCS(=O)(=O)Nc1ncnc(OCCOc2ncc(Br)cn2)c1-c1ccc(Br)cc1 | Fall in mean arterial blood pressure (Rattus norvegicus [1]): 22 mmHg |
| 1.1 | COc1ccccc1Oc1c(NS(=O)(=O)CCc2ccccc2)nc(-c2ncccn2)nc1OCCOc1ncc(SC)cn1 | – |
| 1 | COc1cccc(Oc2c(NS(=O)(=O)NCc3ccccc3)ncnc2OCCOc2ncc(Br)cn2)c1 | Activity (Rattus norvegicus [2]): inactive; Fall in mean arterial blood pressure (Rattus norvegicus [1]): 10 mmHg |
| 0.8 | CCNS(=O)(=O)Nc1ncnc(OCCOc2ncc(Br)cn2)c1-c1ccc(Br)cc1 | Fall in mean arterial blood pressure (Rattus norvegicus [1]): 20 mmHg |
| 0.7 | Cc1ccc(-c2c(NS(=O)(=O)NCc3ccccc3)ncnc2OCCOc2ncc(Br)cn2)cc1 | – |
| 0.4 | CCCNS(=O)(=O)Nc1ncnc(OCCOc2ncc(Br)cn2)c1Oc1cc(OC)ccc1Cl | Fall in mean arterial blood pressure (Rattus norvegicus [1]): 21 mmHg |
| 0.3 | CCCCNS(=O)(=O)Nc1ncnc(OCCOc2ncc(Br)cn2)c1-c1ccc(Br)cc1 | Cmax (Rattus norvegicus [3]): 4100 ng/mL; Fall in mean arterial blood pressure (Rattus norvegicus [1]): 16 mmHg |
